The text below walks through data of article PMC10495297, “Three new amide derivatives from the fungus Alternaria brassicicola” (Natural Products and Bioprospecting, 2023).

Data set [1] has as its system IKKβ. Details: method as in PMID 30095270. The settings on record: cited from earlier work.
Data set [2] can be described thus: MTT cytotoxicity assay, HepG2. Conditions: human, HepG2 cells, 0.064 to 40 μM. It is filed as cell-based. Here is the method:
(§1) Compounds 1–6 were tested for the cytotoxicity against six cell lines, including five human cancer cell lines (HepG2, Hep3B, HT-29, HeLa, and OCVAR) and the normal liver cell LO2.
(§2) Compounds 1–6 were evaluated for the cytotoxicity against five human cancer cell lines and normal LO2, including OCVaR, HepG2, HeLa, HT-29, and Hep3B, by a previously reported method The tested cells were purchased from the Cell Bank of Chinese Academy of Science, Shanghai, China. For all cell lines, 5000 cells/ well were seeded into 96-well plates (n = 3) and cultured for 18 h, then exposed to the test compounds at concentrations ranging from 0.064 to 40 μM for 48 h, with cis-platin as the positive control. Briefly, 10 μL/well of MTT was added and cultured for another 4 h before removing medium and adding 100 μL of DMSO. The absorbance at 490 nm was detected, and complete medium containing only 0.1% DMSO was defined as 100% and blank well as 0%. The concentration−response relationships were analyzed using Graphpad Prism Software, version 7.0, and IC50 values derived using nonlinear regression analysis fit to a logistic equation.
(In general: Tetrazolium dyes change colour on reduction, which living cells bring about.)

Data set [3] is described as follows: MTT cytotoxicity assay, Hep3B. In kind it is cell-based. Conditions: human, Hep3B cells, 0.064 to 40 μM. Here is the method:
as §1, §2

Data set [4] is described as follows: MTT cytotoxicity assay, HT-29. The settings on record: human, HT-29 cells, HT-29, MTT, 0.064 to 40 μM. It is filed as cell-based. Here is the method: as §1, §2
Data set [5] can be described thus: MTT cytotoxicity assay, HeLa. In kind it is cell-based. The settings on record: human, HeLa cells, 0.064 to 40 μM. The method, then:
as §1, §2

Data set [6] can be described thus: MTT cytotoxicity assay, OCVAR. In kind it is cell-based. The settings on record: human, OCVAR cells, 0.064 to 40 μM. The method, then: as §1, §2
Data set [7] can be described thus: MTT cytotoxicity assay, normal liver cell LO2. In kind it is cell-based. The settings on record: human, LO2 normal liver cells, 0.064 to 40 μM. Here is the method:
as §1, §2

The subject of data set [8] is PPAR-γ. Details: method as in PMID 30525677. The settings on record: cited from earlier work.

With alterbrassicene A, the IKKβ inhibitory effect result in data set [1] was “potent IKKβ inhibitory effect”.

One may read the IC50 as the concentration needed to halve the response being measured. `CCCCOC(=O)CCCCNC(C)=O` [Compound 2, butyl 5-acetamidopentanoate]: the concentration for half-maximal inhibition (IC50) at 48 h in data set [2], in data set [3], in data set [4], in data set [5], in data set [6] and in data set [7] was more than 40 µM each time.

For the molecule `COCc1ccc(C=O)n1CCCC(=O)O` [Compound 5, 4-[2-formyl-5-(methoxymethyl)-1H-pyrrol-1-yl]butanoic acid], the IC50 at 48 h in data set [2], in data set [3], in data set [4], in data set [5], in data set [6] and in data set [7] was more than 40 µM in each case.

Take alterbrassicicene A: the “agonistic action upon PPAR-γ” value in data set [8] was “strong agonistic action upon PPAR-γ”.
